Results from BigSolDB 2.1.

O=c1cc[nH]c(=O)[nH]1
solubility (mole fraction)
Conditions	283.15 K	288.15 K	293.15 K	298.15 K	303.15 K	308.15 K	313.15 K	318.15 K
in ethanol	7.7e-05	9.1e-05	0.000113	0.000135	0.000166	0.000212	0.000248	0.000296
in isopropanol	6.6e-05	7.6e-05	0.000105	0.00014	0.000169	0.000216	0.000245	0.000281
in methanol	0.000152	0.000166	0.000206	0.000253	0.000307	0.000362	0.000414	0.000519
in water	0.000166	0.000209	0.000264	0.000332	0.00042	0.000513	0.000613	0.000738
